Assay results from the kinase profiling compilation of Christmann-Franck et al. (2016).
Each block holds one molecule with its values, some of them ahead of it.

Tests used:
Experiment in all cases: Caliper, Mobility shift assay off-chip
[1] = target: CHEK1 (human) (UniProt O14757)
[2] = target: RPS6KA4 KD1 KD2 (human) (UniProt O75676)
[3] = target: TNIK (human) (UniProt Q9UKE5)
[4] = target: PIK3CA PIK3R1 (human) (UniProt P27986+P42336)
[5] = target: WNK3 (human) (UniProt Q9BYP7)
[6] = target: KDR (human) (UniProt P35968)
[7] = target: GSK3A (human) (UniProt P49840)
[8] = target: CSNK1G3 (human) (UniProt Q9Y6M4)
[9] = target: MARK2 (human) (UniProt Q7KZI7)
[10] = target: SIK2 (human) (UniProt Q9H0K1)
[11] = target: PIM3 (human) (UniProt Q86V86)
[12] = target: AURKC (human) (UniProt Q9UQB9)
[13] = target: SGK2 (human) (UniProt Q9HBY8)
[14] = target: CSNK1G2 (human) (UniProt P78368)
[15] = target: NEK7 (human) (UniProt Q8TDX7)
[16] = target: EPHB3 (human) (UniProt P54753)
Chain of EPHB3 (human) (P54753 whole entry, looked up): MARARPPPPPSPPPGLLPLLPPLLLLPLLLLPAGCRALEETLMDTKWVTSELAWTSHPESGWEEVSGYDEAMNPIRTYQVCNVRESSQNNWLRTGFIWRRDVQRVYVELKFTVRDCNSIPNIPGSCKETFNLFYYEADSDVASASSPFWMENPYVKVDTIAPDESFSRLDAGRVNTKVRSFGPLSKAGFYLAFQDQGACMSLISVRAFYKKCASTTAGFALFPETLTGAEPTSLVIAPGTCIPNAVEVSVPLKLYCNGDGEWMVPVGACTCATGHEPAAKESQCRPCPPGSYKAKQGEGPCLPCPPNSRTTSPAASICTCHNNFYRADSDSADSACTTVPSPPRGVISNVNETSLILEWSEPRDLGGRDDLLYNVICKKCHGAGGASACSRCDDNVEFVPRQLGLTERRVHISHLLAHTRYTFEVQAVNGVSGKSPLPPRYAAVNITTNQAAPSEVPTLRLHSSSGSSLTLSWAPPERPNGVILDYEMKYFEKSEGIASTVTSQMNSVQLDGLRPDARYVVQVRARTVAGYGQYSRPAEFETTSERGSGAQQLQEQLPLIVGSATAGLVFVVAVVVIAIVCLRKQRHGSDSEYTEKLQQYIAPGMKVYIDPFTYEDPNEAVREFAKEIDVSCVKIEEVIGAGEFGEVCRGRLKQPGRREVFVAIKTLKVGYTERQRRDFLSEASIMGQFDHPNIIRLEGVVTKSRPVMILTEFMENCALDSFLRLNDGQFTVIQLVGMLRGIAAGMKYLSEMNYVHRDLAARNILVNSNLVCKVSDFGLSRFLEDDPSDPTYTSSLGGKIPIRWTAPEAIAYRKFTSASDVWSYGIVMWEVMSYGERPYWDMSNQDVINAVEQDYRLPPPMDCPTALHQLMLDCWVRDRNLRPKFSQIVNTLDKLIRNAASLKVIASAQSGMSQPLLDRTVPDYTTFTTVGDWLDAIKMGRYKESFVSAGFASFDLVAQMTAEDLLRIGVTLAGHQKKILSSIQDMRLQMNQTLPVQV

[17] = target: CDK6 (human) (UniProt Q00534)
Chain of CDK6 (human) (Q00534 whole entry, looked up): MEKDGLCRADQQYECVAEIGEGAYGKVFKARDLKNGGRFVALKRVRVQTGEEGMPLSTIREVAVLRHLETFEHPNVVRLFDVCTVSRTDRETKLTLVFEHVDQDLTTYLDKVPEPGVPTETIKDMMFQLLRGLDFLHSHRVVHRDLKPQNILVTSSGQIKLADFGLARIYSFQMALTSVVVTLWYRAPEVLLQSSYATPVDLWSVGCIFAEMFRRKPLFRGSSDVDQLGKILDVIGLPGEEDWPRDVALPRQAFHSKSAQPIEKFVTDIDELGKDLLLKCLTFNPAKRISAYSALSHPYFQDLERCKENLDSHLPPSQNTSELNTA

[18] = target: PRKD1 (human) (UniProt Q15139)
[19] = target: MUSK (human) (UniProt O15146)
[20] = target: TXK (human) (UniProt P42681)
[21] = target: STK38 (human) (UniProt Q15208)
[22] = target: TBK1 (human) (UniProt Q9UHD2)
Chain of TBK1 (human) (Q9UHD2 whole entry, looked up): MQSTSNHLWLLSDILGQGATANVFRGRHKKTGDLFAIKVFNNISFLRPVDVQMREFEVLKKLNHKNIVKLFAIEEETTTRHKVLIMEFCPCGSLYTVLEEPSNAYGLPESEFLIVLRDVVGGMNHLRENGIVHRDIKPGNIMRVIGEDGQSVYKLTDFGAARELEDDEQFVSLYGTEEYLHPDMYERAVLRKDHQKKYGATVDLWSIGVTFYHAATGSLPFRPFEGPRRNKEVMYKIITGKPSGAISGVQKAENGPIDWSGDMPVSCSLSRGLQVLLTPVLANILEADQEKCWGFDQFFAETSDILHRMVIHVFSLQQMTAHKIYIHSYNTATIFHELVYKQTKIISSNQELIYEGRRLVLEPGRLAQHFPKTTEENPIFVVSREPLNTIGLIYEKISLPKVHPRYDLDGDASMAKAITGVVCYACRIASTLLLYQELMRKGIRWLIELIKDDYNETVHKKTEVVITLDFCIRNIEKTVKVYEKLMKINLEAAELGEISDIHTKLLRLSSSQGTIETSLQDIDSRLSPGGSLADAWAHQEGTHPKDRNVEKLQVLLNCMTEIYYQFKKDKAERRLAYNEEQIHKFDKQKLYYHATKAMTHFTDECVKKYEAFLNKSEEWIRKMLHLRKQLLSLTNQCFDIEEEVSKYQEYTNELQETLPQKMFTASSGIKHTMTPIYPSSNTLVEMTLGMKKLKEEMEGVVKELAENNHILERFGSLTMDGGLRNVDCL

[23] = target: STK3 (human) (UniProt Q13188)
[24] = target: HCK (human) (UniProt P08631)
[25] = target: YES1 (human) (UniProt P07947)
[26] = target: PLK1 (human) (UniProt P53350)
[27] = target: MELK (human) (UniProt Q14680)
Chain of MELK (human) (Q14680 whole entry, looked up): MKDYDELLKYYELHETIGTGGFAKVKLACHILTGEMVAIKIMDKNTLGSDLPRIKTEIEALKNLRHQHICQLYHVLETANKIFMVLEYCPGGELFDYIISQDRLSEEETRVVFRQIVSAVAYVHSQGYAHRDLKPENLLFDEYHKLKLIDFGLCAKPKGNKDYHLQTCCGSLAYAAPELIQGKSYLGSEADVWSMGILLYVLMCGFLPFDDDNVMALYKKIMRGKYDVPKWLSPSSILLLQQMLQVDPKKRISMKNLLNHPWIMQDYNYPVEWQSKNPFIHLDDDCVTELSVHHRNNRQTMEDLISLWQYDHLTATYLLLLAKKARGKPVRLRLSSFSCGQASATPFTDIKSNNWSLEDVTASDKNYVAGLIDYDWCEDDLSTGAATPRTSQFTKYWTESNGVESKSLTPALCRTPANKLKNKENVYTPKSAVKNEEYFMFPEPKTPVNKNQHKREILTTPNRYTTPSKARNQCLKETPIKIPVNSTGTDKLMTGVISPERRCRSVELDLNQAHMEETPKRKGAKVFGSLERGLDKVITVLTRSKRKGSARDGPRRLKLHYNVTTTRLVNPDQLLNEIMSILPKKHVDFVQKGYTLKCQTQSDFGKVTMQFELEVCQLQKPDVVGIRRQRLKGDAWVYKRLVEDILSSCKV

[28] = target: MARK1 (human) (UniProt Q9P0L2)
[29] = target: AURKB (human) (UniProt Q96GD4)
Chain of AURKB (human) (Q96GD4 whole entry, looked up): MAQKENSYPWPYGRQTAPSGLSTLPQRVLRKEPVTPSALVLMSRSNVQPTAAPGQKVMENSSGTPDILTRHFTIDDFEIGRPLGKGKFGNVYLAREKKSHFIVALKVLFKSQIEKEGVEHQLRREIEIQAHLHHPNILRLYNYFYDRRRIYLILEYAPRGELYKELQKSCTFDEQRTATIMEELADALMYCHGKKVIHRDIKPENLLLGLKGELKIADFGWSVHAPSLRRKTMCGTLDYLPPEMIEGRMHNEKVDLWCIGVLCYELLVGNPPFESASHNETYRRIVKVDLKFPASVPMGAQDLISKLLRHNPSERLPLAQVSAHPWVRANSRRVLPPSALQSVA

[30] = target: CLK1 (human) (UniProt P49759)
[31] = target: MAPK9 (human) (UniProt P45984)
Chain of MAPK9 (human) (P45984 whole entry, looked up): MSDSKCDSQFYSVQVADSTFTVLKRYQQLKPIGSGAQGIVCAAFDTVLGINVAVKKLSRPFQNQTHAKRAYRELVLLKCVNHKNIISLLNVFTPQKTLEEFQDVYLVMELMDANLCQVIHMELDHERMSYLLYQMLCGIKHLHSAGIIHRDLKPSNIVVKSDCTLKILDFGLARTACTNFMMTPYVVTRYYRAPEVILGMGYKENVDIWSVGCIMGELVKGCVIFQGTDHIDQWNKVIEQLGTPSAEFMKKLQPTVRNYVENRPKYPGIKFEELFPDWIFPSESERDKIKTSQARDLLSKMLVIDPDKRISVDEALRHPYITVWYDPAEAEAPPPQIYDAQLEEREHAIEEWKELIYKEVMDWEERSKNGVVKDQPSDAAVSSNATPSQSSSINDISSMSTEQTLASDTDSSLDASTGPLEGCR

[32] = target: EPHA7 (human) (UniProt Q15375)
Chain of EPHA7 (human) (Q15375 whole entry, looked up): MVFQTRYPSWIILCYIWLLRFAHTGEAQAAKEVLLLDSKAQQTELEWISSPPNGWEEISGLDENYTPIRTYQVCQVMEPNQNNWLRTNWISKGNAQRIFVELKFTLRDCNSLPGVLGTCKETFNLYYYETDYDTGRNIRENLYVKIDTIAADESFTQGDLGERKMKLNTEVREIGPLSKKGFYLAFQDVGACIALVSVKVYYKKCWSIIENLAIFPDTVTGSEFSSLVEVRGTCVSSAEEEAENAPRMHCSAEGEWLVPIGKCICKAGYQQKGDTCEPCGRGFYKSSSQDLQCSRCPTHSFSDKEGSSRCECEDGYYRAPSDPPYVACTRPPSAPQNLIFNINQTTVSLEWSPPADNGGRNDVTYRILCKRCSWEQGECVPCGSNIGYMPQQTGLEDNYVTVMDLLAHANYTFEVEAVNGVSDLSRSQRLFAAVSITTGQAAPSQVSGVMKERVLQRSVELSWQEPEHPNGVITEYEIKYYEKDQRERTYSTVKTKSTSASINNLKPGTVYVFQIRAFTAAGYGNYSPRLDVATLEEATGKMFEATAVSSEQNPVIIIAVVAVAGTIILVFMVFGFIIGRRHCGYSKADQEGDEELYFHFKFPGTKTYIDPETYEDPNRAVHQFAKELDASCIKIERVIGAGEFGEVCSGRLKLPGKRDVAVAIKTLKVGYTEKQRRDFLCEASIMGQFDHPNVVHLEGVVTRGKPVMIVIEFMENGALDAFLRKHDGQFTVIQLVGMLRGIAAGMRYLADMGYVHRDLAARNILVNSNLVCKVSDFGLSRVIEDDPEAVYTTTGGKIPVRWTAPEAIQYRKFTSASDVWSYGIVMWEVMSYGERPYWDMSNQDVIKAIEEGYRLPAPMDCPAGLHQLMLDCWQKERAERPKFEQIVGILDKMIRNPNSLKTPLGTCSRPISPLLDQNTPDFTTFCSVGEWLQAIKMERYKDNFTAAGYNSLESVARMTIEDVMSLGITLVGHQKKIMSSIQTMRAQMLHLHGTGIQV

[33] = target: TNK1 (human) (UniProt Q13470)
[34] = target: BTK (human) (UniProt Q06187)

- inhibition ([1]; compound 0.001 µM): -2%
- inhibition ([1]; compound 0.02 µM): 0.9%
- inhibition ([2]; compound 0.001 µM): -7.2%
- inhibition ([2]; compound 0.02 µM): -1.1%
- inhibition ([3]; compound 0.001 µM): -6%
- inhibition ([3]; compound 0.02 µM): 1.4%
- inhibition ([4]; compound 0.001 µM): 40.8%
- inhibition ([4]; compound 0.02 µM): 40.7%
- inhibition ([5]; compound 0.001 µM): 0.8%
- inhibition ([5]; compound 0.02 µM): -1.4%
- inhibition ([6]; compound 0.001 µM): 47.3%
- inhibition ([6]; compound 0.02 µM): 97.4%
- inhibition ([7]; compound 0.001 µM): 2.4%
- inhibition ([7]; compound 0.02 µM): 0.2%
- inhibition ([8]; compound 0.001 µM): -3.7%
- inhibition ([8]; compound 0.02 µM): -2.5%
- inhibition ([9]; compound 0.001 µM): 3.5%
- inhibition ([9]; compound 0.02 µM): 11.8%
- inhibition ([10]; compound 0.001 µM): 0.7%
- inhibition ([10]; compound 0.02 µM): -1.6%
- inhibition ([11]; compound 0.001 µM): -7.7%
- inhibition ([11]; compound 0.02 µM): -5.9%
- inhibition ([12]; compound 0.001 µM): -2.1%
- inhibition ([12]; compound 0.02 µM): 42.3%
- inhibition ([13]; compound 0.001 µM): -1.7%
- inhibition ([13]; compound 0.02 µM): 4.4%
- inhibition ([14]; compound 0.001 µM): -2.9%
- inhibition ([14]; compound 0.02 µM): -1.6%
- inhibition ([15]; compound 0.001 µM): -3.9%
- inhibition ([15]; compound 0.02 µM): -4.1%
- inhibition ([16]; compound 0.001 µM): -8%
- inhibition ([16]; compound 0.02 µM): -4.7%
- inhibition ([17]; compound 0.001 µM): 3.5%
- inhibition ([17]; compound 0.02 µM): 4.4%
- inhibition ([18]; compound 0.001 µM): -2.7%
- inhibition ([18]; compound 0.02 µM): -2.2%
- inhibition ([19]; compound 0.001 µM): -3.1%
- inhibition ([19]; compound 0.02 µM): 4.8%
- inhibition ([20]; compound 0.001 µM): -4%
- inhibition ([20]; compound 0.02 µM): -3.9%
- inhibition ([21]; compound 0.001 µM): 8%
- inhibition ([21]; compound 0.02 µM): -1.3%
- inhibition ([22]; compound 0.001 µM): -3.3%
- inhibition ([22]; compound 0.02 µM): -2%
- inhibition ([23]; compound 0.001 µM): -3.8%
- inhibition ([23]; compound 0.02 µM): -2.3%
- inhibition ([24]; compound 0.02 µM): -7.8%
- inhibition ([25]; compound 0.001 µM): 5.9%
- inhibition ([26]; compound 0.001 µM): -5%
- inhibition ([26]; compound 0.02 µM): -2.2%
- inhibition ([27]; compound 0.001 µM): 1.9%
- inhibition ([27]; compound 0.02 µM): 0.9%
- inhibition ([28]; compound 0.001 µM): -3.2%
- inhibition ([29]; compound 0.001 µM): 5.9%
- inhibition ([29]; compound 0.02 µM): 48.4%
- inhibition ([30]; compound 0.001 µM): 6.6%
- inhibition ([30]; compound 0.02 µM): -7.5%
- inhibition ([31]; compound 0.001 µM): -9.7%
- inhibition ([31]; compound 0.02 µM): -9.3%
- inhibition ([32]; compound 0.001 µM): -3.2%
- inhibition ([32]; compound 0.02 µM): -0.8%
- inhibition ([33]; compound 0.001 µM): 26.9%
- inhibition ([33]; compound 0.02 µM): 24.8%
SMILES: CNC(=O)c1ccccc1Sc1ccc2c(/C=C/c3ccccn3)n[nH]c2c1

- inhibition ([34]; compound 0.2 µM): 2.7%
- inhibition ([34]; compound 4.0 µM): 51.2%
- inhibition ([1]; compound 0.2 µM): 59.3%
- inhibition ([1]; compound 4.0 µM): 95.2%
- inhibition ([2]; compound 0.2 µM): 15.5%
- inhibition ([2]; compound 4.0 µM): 73.7%
- inhibition ([3]; compound 0.2 µM): 87.5%
- inhibition ([3]; compound 4.0 µM): 98.1%
- inhibition ([5]; compound 0.2 µM): 1.8%
- inhibition ([5]; compound 4.0 µM): 2.4%
- inhibition ([7]; compound 0.2 µM): 3.3%
- inhibition ([7]; compound 4.0 µM): 21.8%
- inhibition ([10]; compound 0.2 µM): 46.8%
- inhibition ([10]; compound 4.0 µM): 94.5%
- inhibition ([11]; compound 0.2 µM): 3.1%
- inhibition ([11]; compound 4.0 µM): 42.9%
- inhibition ([12]; compound 0.2 µM): 23.2%
- inhibition ([12]; compound 4.0 µM): 87.1%
- inhibition ([13]; compound 0.2 µM): 5.5%
- inhibition ([13]; compound 4.0 µM): 57.6%
- inhibition ([15]; compound 0.2 µM): -1.4%
- inhibition ([15]; compound 4.0 µM): -5.6%
- inhibition ([16]; compound 0.2 µM): -1.7%
- inhibition ([16]; compound 4.0 µM): 15.3%
- inhibition ([17]; compound 0.2 µM): 23.8%
- inhibition ([17]; compound 4.0 µM): 89.2%
- inhibition ([18]; compound 0.2 µM): 73.6%
- inhibition ([18]; compound 4.0 µM): 99%
- inhibition ([19]; compound 0.2 µM): 94.8%
- inhibition ([19]; compound 4.0 µM): 101%
- inhibition ([20]; compound 0.2 µM): 6.1%
- inhibition ([20]; compound 4.0 µM): 43%
- inhibition ([21]; compound 0.2 µM): 8.9%
- inhibition ([21]; compound 4.0 µM): 45.1%
- inhibition ([22]; compound 0.2 µM): 28.1%
- inhibition ([22]; compound 4.0 µM): 87.5%
- inhibition ([23]; compound 0.2 µM): 51.4%
- inhibition ([23]; compound 4.0 µM): 95.7%
- inhibition ([24]; compound 0.2 µM): 38%
- inhibition ([24]; compound 4.0 µM): 94.6%
- inhibition ([25]; compound 0.2 µM): 96.9%
- inhibition ([25]; compound 4.0 µM): 101%
- inhibition ([26]; compound 0.2 µM): -3.4%
- inhibition ([26]; compound 4.0 µM): 5.8%
- inhibition ([27]; compound 0.2 µM): 80%
- inhibition ([27]; compound 4.0 µM): 99.2%
- inhibition ([28]; compound 0.2 µM): 68.8%
- inhibition ([28]; compound 4.0 µM): 96.8%
- inhibition ([29]; compound 0.2 µM): 46%
- inhibition ([29]; compound 4.0 µM): 90%
- inhibition ([31]; compound 0.2 µM): -8.7%
- inhibition ([31]; compound 4.0 µM): -15.7%
- inhibition ([32]; compound 0.2 µM): 19.8%
- inhibition ([32]; compound 4.0 µM): 82%
- inhibition ([33]; compound 0.2 µM): 32.1%
- inhibition ([33]; compound 4.0 µM): 88.4%
SMILES: CCN(CC)CCNC(=O)c1c(C)[nH]c(/C=C2\C(=O)Nc3ccc(F)cc32)c1C
